The text below walks through data of PubChem BioAssay (NCI).

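Briefly, cells in 96-well plates were exposed to five compound concentrations for 48 h, and endpoints were estimated by linear interpolation. The concentration for 50% growth inhibition is given as GI50. At the TGI there is no net growth.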

Common to all, as to test: NCI tumour cell line growth inhibition, 48 h
Experiment [1] relates to 786-0 renal.
Experiment [2] relates to HCT-15 colon.
The subject of experiment [3] is HS 578T breast.
The test system of experiment [4] is IGROV1 ovarian.
Experiment [5] has as its system LOX IMVI melanoma.
For experiment [6], the system named is NCI-H226 lung.
Experiment [7] has as its system RPMI-8226 leukemia.
Experiment [8] relates to RXF 393 renal.
Experiment [9] deals with SW-620 colon.
The test system of experiment [10] is UO-31 renal.

As for `COc1cc(C(=O)N/N=C/c2cccc([N+](=O)[O-])c2)cc(OC)c1OC`, the GI50 was 5.8 µM in experiment [1]; 6.78 µM in experiment [2]; 2.02 µM in experiment [3]; 4.63 µM in experiment [4]; 4.69 µM in experiment [5]; 18 µM in [6]. Further, the GI50 was 5.39 µM in experiment [7], 6.9 µM in [8], 3.15 µM in experiment [9] and 5.2 µM in [10]. Besides, the TGI in [1] was > 100 µM; in [2] it was > 100 µM; in experiment [3] it was 8.6 µM; in [4] it was > 100 µM; in experiment [5], > 100 µM; in experiment [6] it was > 100 µM. The TGI in experiment [7] is > 100 µM; in experiment [8] it was 34.3 µM; in experiment [9] it was > 100 µM; in experiment [10], > 100 µM.
In the case of `CC(C)n1nc(C#Cc2cccc(NC(=O)c3cccc(C(F)(F)F)c3)c2)c2c(N)ncnc21`, the GI50 in experiment [1] is 2.65 µM; in experiment [2] it was 2.41 µM; in experiment [3] it was 0.216 µM; in experiment [4], 0.333 µM; in [5], 0.204 µM; in experiment [6] it was 0.99 µM. Besides, the GI50 in experiment [7] is 2.26 µM; in experiment [8] it was 1.02 µM; in experiment [9] it was 2.2 µM; in [10], 0.601 µM. Also, the TGI was 14.3 µM in experiment [1]; > 100 µM in experiment [2]; 1.88 µM in [3]; 1.59 µM in experiment [4]; 1.04 µM in experiment [5]; 6.35 µM in [6]. Besides, the TGI in [7] was 16.7 µM; in experiment [8] it was 2.49 µM; in experiment [9], > 100 µM; in [10], 6.1 µM.
With `C#Cc1ccc(-n2c(/C=C/c3cc(OC)c(OC)c(OC)c3)nc3ncccc3c2=O)cc1`, the GI50 was 5.31 µM in experiment [1]; 5.58 µM in experiment [2]; 3.67 µM in [3]; 6.08 µM in experiment [4]; 4.61 µM in experiment [5]; 12.9 µM in experiment [6]. The GI50 in experiment [7] was 3.6 µM; in [8], 7.04 µM; in [9], 3.29 µM; in experiment [10] it was 4.09 µM. Besides, the TGI is > 100 µM in experiment [1]; > 100 µM in experiment [2]; 23 µM in experiment [3]; > 100 µM in experiment [4]; 64 µM in [5]; > 100 µM in [6]. Moreover, the TGI in [7] was > 100 µM; in experiment [8], > 100 µM; in experiment [9] it was 49.6 µM; in experiment [10], > 100 µM.
Regarding `O=c1[nH]c2cc(O)ccc2n2cc3c(F)cccc3c12`, the GI50 in experiment [1] is 4.29 µM; in experiment [2], 0.536 µM; in experiment [3], 3.85 µM; in experiment [4], 2.16 µM; in [5] it was 0.748 µM; in [6] it was 2.04 µM. Besides, the GI50 was 4.38 µM in experiment [7], 0.969 µM in [8], 0.477 µM in [9] and 0.995 µM in experiment [10]. The TGI in [1], in experiment [2], in experiment [3], in experiment [4], in [5] and in [6] was > 100 µM throughout. The TGI in experiment [7], in experiment [8], in experiment [9] and in experiment [10] was > 100 µM throughout.
In the case of `O=C(Nc1ccccc1)Nc1ccccc1CNc1nc(Nc2ccc(OCCN3CCCC3)cc2)ncc1Cl`, the GI50 in [1] was 1.11 µM; in [2], 2 µM; in experiment [3], 2.38 µM; in experiment [4], 7.02 µM; in [5], 1.02 µM; in [7] it was 1.33 µM. Moreover, the values for the GI50 in experiment [8], in [9] and in experiment [10] were 1.44 µM, 4.67 µM and 2.57 µM, respectively. The TGI in experiment [1] was 2.78 µM; in experiment [2], 8.31 µM; in [3] it was 15.7 µM; in experiment [4] it was 15.4 µM; in [5], 2.11 µM; in [7] it was 3.6 µM. The TGI in experiment [8] was 5.84 µM; in experiment [9], 12.7 µM; in experiment [10] it was 10.3 µM.
As for `CCOC(=O)C1=C(c2ccccc2)N(Cc2ccccc2)C2(O)C=CC(=O)C3C(=O)N(c4ccccc4)C(=O)C132` (centres undefined), the GI50 in experiment [1] is 2.11 µM; in [2] it was 1.7 µM; in [3], 3.46 µM; in experiment [5], 1.34 µM; in experiment [6], 2.25 µM; in experiment [7], 1.27 µM. In addition, the GI50 in experiment [8] was 1.91 µM; in experiment [9] it was 1.81 µM. Also, the TGI stood at 5.34 µM in experiment [1]; 3.67 µM in experiment [2]; 18.3 µM in experiment [3]; 2.67 µM in experiment [5]; 4.87 µM in experiment [6]; 4.35 µM in experiment [7]. Besides, the TGI in [8] amounted to 3.75 µM; in experiment [9], 3.91 µM.
Turning to `CC(C)(C)c1ccc(S(=O)(=O)N[C@H]2CC[C@H]3[C@@H]4CCc5cc(O)ccc5[C@H]4CC[C@]23C)cc1`, the GI50 is 2.19 µM in experiment [1]; 2.39 µM in experiment [3]; 3.74 µM in experiment [4]; 1.77 µM in [5]; 1.75 µM in experiment [6]; 1.88 µM in experiment [7]. The GI50 in [8] is 1.61 µM; in [9] it was 3.18 µM; in [10], 1.81 µM. Further, the TGI in experiment [1] was found to be 5.02 µM; in [3], 6.98 µM; in experiment [4], 10.8 µM; in experiment [5] it was 3.17 µM; in experiment [6], 3.51 µM; in experiment [7], 4.51 µM. Besides, the TGI in [8] worked out at 3.46 µM; in experiment [9] it was 11.8 µM; in experiment [10], 4.11 µM.
On to `CCC1(N2C(=O)c3c(F)c(F)c(F)c(F)c3C2=O)C(=O)NC(=O)N(c2ccccc2)C1=O` (centres undefined), for which the GI50 was 3.34 µM in [1]; 2.32 µM in experiment [2]; 4.14 µM in experiment [3]; 1.18 µM in experiment [5]; 10.9 µM in experiment [6]; 0.331 µM in [7]. For the same compound, the GI50 is 2.75 µM in [8], 1.76 µM in experiment [9] and 17.1 µM in [10]. Also, the TGI is 13.9 µM in experiment [1]; 7.14 µM in experiment [2]; 30.1 µM in [3]; 2.73 µM in [5]; 24.2 µM in experiment [6]; 2.58 µM in experiment [7]. The values for the TGI in experiment [8], in experiment [9] and in experiment [10] were 15.5 µM, 3.96 µM and 63.7 µM, respectively.
Take `COc1ncnc2c(-c3ccco3)cn(COCc3ccccc3)c12`: the GI50 in [1] was 17.7 µM; in experiment [3], 18.6 µM; in [4] it was > 50 µM; in experiment [5], > 50 µM; in [6], > 50 µM; in [7], 4.87 µM. Moreover, the GI50 in experiment [8] and in experiment [9] was > 50 µM in each case. The TGI in experiment [1], in [3], in [4], in experiment [5], in experiment [6] and in experiment [7] was > 50 µM throughout. Moreover, the TGI in [8] and in [9] was > 50 µM throughout.
As for `O=C(CN=Cc1cccs1)CSC(c1ccccc1)c1ccccc1`, the GI50 in [1] is 34 µM; in [2], 17.7 µM; in experiment [3], 26.1 µM; in [5] it was 25.8 µM; in experiment [6] it was 24 µM; in [7], 12.1 µM. For the same compound, the GI50 in experiment [8] is 17.1 µM; in [9], 29.8 µM. Further, the TGI in experiment [1] was > 100 µM; in experiment [2], 57.3 µM; in experiment [3], 97 µM; in experiment [5], 82.2 µM; in experiment [6], 66 µM; in experiment [7] it was 28.7 µM. Besides, the values for the TGI in experiment [8] and in experiment [9] were 44.1 µM and > 100 µM, respectively.
Regarding `O=C(CC(C(=O)O)N1CCOCC1)c1ccccc1` (centres undefined), the TGI in experiment [1] is 30.1 µM; in experiment [2] it was 40.8 µM; in experiment [3], 88.9 µM; in experiment [4], 63.2 µM; in experiment [5], 33.6 µM; in [6] it was > 100 µM. In addition, the TGI in experiment [7] was 42.1 µM; in [8], 34.3 µM; in experiment [9], 44.1 µM.
Take `COc1ccc(S(=O)(=O)NCCNc2nccc(-c3c(-c4ccccc4)nc4sccn34)n2)cc1`: the GI50 in experiment [1] is 3.42 µM; in [2], 2.42 µM; in experiment [3] it was 2.18 µM; in [4], 2.13 µM; in [5], 3.94 µM; in experiment [6], 4.66 µM. The GI50 is 5.71 µM in experiment [8], 5.03 µM in experiment [9] and 0.706 µM in experiment [10]. For the same compound, the TGI is > 100 µM in [1]; > 100 µM in experiment [2]; 47.4 µM in experiment [3]; > 100 µM in experiment [4]; > 100 µM in experiment [5]; > 100 µM in [6]. Besides, the TGI was 91 µM in [8], > 100 µM in experiment [9] and > 100 µM in [10].
